The numbers were not newly measured in patent publication US20240033223A1 (SICHUAN CREDIT PHARMACEUTICAL CO., LTD, priority 2020, published 2024), which cites them from elsewhere.

The conditions of the series: aqueous preparation (U.S. Pat. No. 4,925,860).

For `O=C1NC(=O)C(c2ccccc2)(c2ccccc2)N1` [Impurity C, Phenytoin], the Solubility in water entry was “water-insoluble”.
